11 compounds from EP1712231A2 (priority 1998, dated 2000) can be followed below.

Marks after values point to notes of the source that are not given here.

The nature of series [1]: Table 1: tipranavir drug-drug interaction potential and routes of elimination of antiretrovirals. Particulars: drug-drug interaction with tipranavir.
Series [2] is described as follows: Study 1: pharmacokinetic drug-drug interaction of tipranavir 1350 mg BID and ritonavir 500 mg BID, plasma levels by HPLC. The series is classed as in vivo, human. To be noted: for CLPO / Cmin / Css: median (range). An excerpt:
Twelve subjects were Caucasian and two were of African descent. Ten subjects completed all aspects of the study. Pharmacokinetic analyses were based on the results obtained in these subjects. […] Detection was by UV absorbance at 260 nm. […] Ritonavir and the internal standard (IS) were extracted from human plasma by liquid-liquid extraction with an ethyl acetate mixture.

Series [3] in a line: Study 2: pharmacokinetic drug-drug interaction of tipranavir 600 or 900 mg BID and ritonavir 100-500 mg BID, plasma levels by HPLC. The series is classed as in vivo, human. Particulars: for CLPO / Cmin / Css / AUC / Cmax / Tmax: median (range); for half-life / AUC / Cmax / Tmax: both sexes, human, plasma, oral; for half-life: harmonic mean (range), read-out: t½ (converted). As for the experimental part:
Both groups received their assigned dose of tipranavir continuously throughout the study period. […] The pharmacokinetics of tipranavir when coadministered with ritonavir were evaluated and compared with baseline data, while the ritonavir data were compared to historical data. The study was conducted in 19 healthy volunteers (16 males and 3 females) with a mean age of 30 years (range, 19-52 years), height of 177.1 cm (range, 162.6-190.5 cm), and weight of 76.7 kg (range, 57.3-95.0 kg). Eighteen subjects were Caucasian […]. […] Pharmacokinetic analyses were based on those subjects completing the baseline evaluation and at least one period of concomitant drug administration. […] Detection was by UV absorbance at 260 nm. […] Ritonavir and the internal standard (IS) were extracted from human plasma by liquid-liquid extraction with an ethyl acetate mixture.

Series [4] in a line: Example 4: pharmacokinetic drug-drug interaction of tipranavir SEDDS 1250 mg BID and ritonavir oral solution 200 mg BID. In kind it is in vivo, human.
The mark [5] stands for this setting: Ritonavir 500 mg BID + Tipranavir 1350 mg BID, n=10.
Where [6] appears, read: Ritonavir 500 mg BID alone, steady state, n=10.
Setting [7] is: ritonavir 500 mg BID + tipranavir 1350 mg BID vs ritonavir alone.
Setting [8] is: Ritonavir 500 mg BID + Tipranavir 600 mg BID, N=7.
Setting [9] is: Ritonavir 500 mg BID + Tipranavir 900 mg BID, N=6.
[10] abbreviates: ritonavir 500 mg BID + tipranavir 600 or 900 mg BID vs ritonavir alone.
Setting [11] is: Ritonavir Oral Solution 200mg BID + Tipranavir SEDDS SEC 1250mg BID, median (range), N=21.
The mark [12] stands for this setting: ritonavir 200 mg BID + tipranavir 1250 mg BID vs 500-mg twice-daily ritonavir alone.

For `CC(C)CN(C[C@@H](O)[C@H](Cc1ccccc1)NC(=O)O[C@H]1CCOC1)S(=O)(=O)c1ccc(N)cc1` [Amprenavir], the “Potential for Clinically Significant Interaction” value in series [1] is “High (and unfavorable)”.
On the same count and under the same terms, then `Nc1ccn([C@H]2CC[C@@H](CO)O2)c(=O)n1` [ddC], with “Low”.
With `C[C@H](Sc1nc(N)cc(Cl)n1)c1cc2ccoc2cn1` [PNU-142721], the “Potential for Clinically Significant Interaction” value in series [1] was “Uncertain”.
The same measure, in the same setting: the entry for `Cc1ccnc2c1NC(=O)c1cccnc1N2C1CC1` [Nevirapine] is “Uncertain”; for `Cc1c(O)cccc1C(=O)N[C@@H](CSc1ccccc1)[C@H](O)CN1C[C@H]2CCCC[C@H]2C[C@H]1C(=O)NC(C)(C)C` [Nelfinavir] it is “High (and unfavorable)”.
Take `Cc1cn([C@H]2C[C@H](N=[N+]=[N-])[C@@H](CO)O2)c(=O)[nH]c1=O` [AZT, zidovudine]: in series [1], the “Potential for Clinically Significant Interaction” value is reported as “Low”.
On the same count and under the same terms, the entry for `O=C1Nc2ccc(Cl)cc2[C@@](C#CC2CC2)(C(F)(F)F)O1` [Efavirenz] is “Uncertain (Efavirenz is a possible CYP3A inducer)”; for `O=c1[nH]cnc2c1ncn2[C@H]1CC[C@@H](CO)O1` [ddI] it is “Low”.
The AUC is the area under the concentration-time curve, a measure of exposure. As usually defined, the Cmax is the peak of the concentration-time curve. The term Tmax denotes the time from dosing to the highest level. Consider `CC(C)c1nc(CN(C)C(=O)N[C@H](C(=O)N[C@@H](Cc2ccccc2)C[C@H](O)[C@H](Cc2ccccc2)NC(=O)OCc2cncs2)C(C)C)cs1` [Ritonavir, (2S,3S,5S)-5(N-(N-((N-Methyl-N-((2-isopropyl-4-thiazoly)methyl)amino)carbonyl)-L-valinyl)amino)-2-(N-((5-thiazoly)methoxycarbonyl)amino)-1,6-diphenyl-3-hydroxhexane, reference compound], for which, in series [2] (setting [5]), the CLPO is reported as 26 (17-61) L/h, the Cmin was 0.10 (0.04-0.29) µg/mL and the Css was 1.6 (0.69-2.50) µg/mL. The t½ in series [2] (Ritonavir 500 mg BID alone, harmonic mean (range), n=10) is 2.9 (2.6-4.4) h. In series [2] (setting [6]), the CLPO is 5.1 (3.9-7.8) L/h, the Cmin is recorded as 1.9 (1.0-3.9) µg/mL and the Css was 8.4 (5.3-10.7) µg/mL. The half-life in series [2] (both sexes, human, plasma, oral, 500 mg, read-out: t½ (converted)) was 2.9 h. For the same compound, in series [2] (setting [7]), the “decrease in mean steady-state ritonavir concentrations” value is on record as about 5 fold; the “decrease of median ritonavir Cmax value” stood at 3.8 fold; the “median ritonavir Cmin concentration, fold lower” value is on record as “more than 10 fold”. Further, in series [3] (setting [8]), the CLPO was 19 (11-31) L/h, the Cmin is 0.15 (0.08-0.53) µg/mL, the Css is given as 2.3 (1.4-3.7) µg/mL and the half-life is 1.8 h. In series [3] (setting [8]), the AUC is 27000 ng·h/mL, the Cmax was determined as 7000 ng/mL and the Tmax was 3 h. Moreover, in series [3] (setting [9]), the CLPO is given as 19 (12-27) L/h, the Cmin is reported as 0.15 (0.09-0.62) µg/mL, the Css was 1.9 (1.6-3.4) µg/mL and the half-life was 1.8 h. In series [3] (setting [9]), the AUC is 26000 ng·h/mL, the Cmax was determined as 5800 ng/mL and the Tmax is 3 h. Also, in series [3] (setting [10]), the “decrease in steady-state plasma ritonavir concentrations” value is about 4 fold; the “median ritonavir Cmax values, fold lower” value is “more than 2 fold”; the “median ritonavir Cmin values, fold lower” value is given as “more than 10 fold”. Besides, in series [4] (setting [11]), the CLPO is 25.1 (8.4-73.1)* L/h, the Cmin was 0.035 (0.000-0.341)* µg/mL and the Css was 0.67 (0.23-1.99)* µg/mL. The “apparent elimination half-life of ritonavir relative to ritonavir given alone” value in series [4] (ritonavir 200 mg BID + tipranavir 1250 mg BID) is recorded as “decreased”. In series [4] (setting [12]), the “median ritonavir AUC, fold lower” value is on record as 12 fold; the “median ritonavir Cmax, fold lower” value is 10 fold; the “median ritonavir Cmin, fold lower” value worked out at 54 fold. Also, the “Potential for Clinically Significant Interaction” value in series [1] is reported as “High (possibly favorable) (Ritonavir increases trough tipranavir concentrations; tipranavir expected to reduce ritonavir concentrations”.
Take `Nc1nc(NC2CC2)c2ncn([C@H]3C=C[C@@H](CO)C3)c2n1` [Abacavir]: in series [1], the “Potential for Clinically Significant Interaction” value is on record as “Low”.
Same read-out and setting: then `CC(C)(C)NC(=O)[C@@H]1CN(Cc2cccnc2)CCN1C[C@@H](O)C[C@@H](Cc1ccccc1)C(=O)N[C@H]1c2ccccc2C[C@H]1O` [Indinavir], with “High (and unfavorable)”.
